Reference: patent US20190210969A1, “INTRAESOPHAGEAL ADMINISTRATION OF TARGETED NITROXIDE AGENTS FOR PROTECTION AGAINST IONIZING IRRADIATION-INDUCED ESOPHAGITIS” (University of Pittsburgh - Of the Commonwealth System of …, priority 2010, published 2019)

Assays:
[1] = system: mice exposed to total body irradiation; assay: Survival of mice after total body irradiation; type: in vivo, mouse; conditions: for protection from death: vs TEMPO or F14 alone, preliminary data
Protocol: In FIG. 4A, mice received intraperitoneal injection of 10 mg per kilogram of each of the chemicals indicated, then 24 hours later received 9.75 Gy total body irradiation according to published methods. Mice were followed for survival according to IACUC regulations. […] (P=0.0008). In FIG. 4B, mice received intraperitoneal injection of JP4-039 either 10 minutes before (square symbols) or 4 hours after (triangle symbols) irradiation with 9.75 Gy.
Groups of 15 mice received intraperitoneal injection of 10 mg. per kilogram of each indicated GS-nitroxide compound or carrier (Cremphora plus alcohol at 1 to 1 ratio, then diluted 1 to 10 in distilled water). Mice received 10 mg per kilogram intra-peritoneal injection 24 hours prior to total body irradiation. Control mice received radiation alone. […] (P=0.0005) FIG. 6 is a graph showing that GS-nitroxide JP4-039 is an effective hematopoietic cell radiation mitigator when delivered 24 hr after irradiation. Irradiation survival curves were performed on cells from the 32D cl 3 mouse hematopoietic progenitor cell line, incubated in 10 μM JP4-039 for 1 hour before irradiation, or plated in methylcellulose containing 10 μM […] after irradiation. Cells were irradiated from 0 to 8 Gy, plated in 0.8% methylcellulose containing media, and incubated for 7 days at 37° C. Colonies of greater than 50 cells were counted and data analyzed by linear quadratic and single-hit, multi-target models.
The above methods are based on preliminary data showing that JP4-039 administered via i.p. injection at 10 mg/kg 10 minutes before either […] [FIG. 21A] or 9.15 Gy [FIG. 21B] total-body irradiation protected C57BL/6NHsd female mice from esophagitis-induced death compared to those that received either TEMPO or F14 alone (p=0.0301 and p=0.010, respectively).

[2] = system: KM101 human marrow stromal cells; assay: Irradiation survival of KM101 marrow stromal cells (colony assay); type: cell-based; conditions: for n (shoulder): 0 to 6 Gy
Protocol: FIG. 7 is a graph showing that JP4-039 is an effective mitigator of irradiation damage to KM101 human marrow stromal cells. KM101 cells were incubated in media alone or in JP4-039 ([…]) for one hour before irradiation or 24 hours after irradiation. The cells were irradiated to doses ranging from 0 to 6 Gy and plated in 4 well plates. Seven days later the cells were stained with crystal violet and colonies of greater than 50 cells counted. Cells incubated in JP4-039 either before or after irradiation were more radioresistant as shown by an increased shoulder of n=2.3±0.2 or 2.2±0.2, respectively compared to n of 1.1±0.1 for the KM101 cells (p=0.0309 or 0.0386, respectively).

[3] = system: Lewis lung carcinoma cells (3LL); assay: Irradiation of mice with orthotopic 3LL lung tumors; type: in vivo, mouse
Source text: A separate group of mice received intratracheal administration of 1×10^6 Lewis lung carcinoma cells (3LL) seven days prior to administration of JP4-039, followed immediately by excision of lung tissue to calculate JP4-039 uptake by cancer cells.
This dose of irradiation was chosen to reduce tumor growth but was below the level required for lethal esophagitis. […] Control tumor-bearing mice received no irradiation.

[4] = system: GFP+ cells in the esophagus; assay: GFP+ marrow-derived cells in the irradiated esophagus (cell sorting); type: in vivo, mouse
Source text: FIGS. 18A-F. Detection of GFP+ marrow-derived cells in the irradiated mouse esophagus after intravenous transplant. Mice were irradiated to 29 Gy to the esophagus on day 0, and then injected with 1×10^7 GFP+ marrow cells intravenously on day 5 according to published methods (Epperly M W, et al. Int J Cancer (Radiat Oncol Invest) 96: 221-233, 2001; Epperly M W, et al. In Vivo 19: 997-1004, 2005; and Epperly M W, et al. Protection of esophageal stem cells from ionizing irradiation by MnSOD-plasmid liposome gene therapy. In Vivo 19: 965-974, 2005). Five esophagus samples were removed from each animal in the various subgroups on days 1 (FIG. 18A), 3 (FIG. 18B), 7 (FIG. 18C), 14 (FIG. 18D), 28 (FIG. 18E) and 60 (FIG. 18F) after marrow injection. Samples of excised esophagi were prepared as single cell suspensions and then analyzed by cell […] for GFP+ cells/106 esophagus cells. Each symbol represents one esophagus.
Bone marrow transplantation, esophageal excision and cell sorting. Five days after irradiation, the time shown to optimize marrow cell homing to the irradiated esophagus, mice received intravenous injection of 1.0×10^7 C57BL/6HNsd GFP+ male bone marrow cells prepared as single-cell suspension from donor male mice according to published methods (Niu Y, et al. Irradiated esophageal cells are protected from radiation-induced recombination by MnSOD gene therapy. Rad Res 173: 453-461, 2010 and Niu Y, et al. Intraesophageal MnSOD-plasmid liposome administration enhances engraftment and self-renewal capacity of bone marrow derived progenitors of esophageal squamous epithelium. Gene Therapy 15: 347-356, 2008). At serial time points after marrow transplantation, esophagus specimens were removed, and single cell suspensions prepared according to published methods (Id.). The esophagus cell suspensions were sorted for GFP+ cells. The number of GFP+ cells per 10^6 was calculated as described previously (Id.). (GFP+) cells were placed on slides, and stained for detection of donor cell markers (Id.).
Statistics. In vitro data analysis and estimation of survival of mice were performed using published statistical methods (Epperly M W, et al. Radiat Res 155: 2-14, 2001). The Kruskal-Wallis test and post-hoc Mann-Whitney test were used to evaluate donor marrow cells in the esophagus as described (Niu Y, et al. Rad Res 173: 453-461, 2010). A SAS statistical program was used to perform the statistical analysis (SAS Institute, Cary, N.C., USA).

CC(C)C[C@@H](/C=C/CC(=O)NC1CC(C)(C)N([O])C(C)(C)C1)NC(=O)OC(C)(C)C [JP4-039, TEMPO-4-yl-(S,E)-5-(tert-butoxycarbonylamino)-7-methyloct-3-enamide]
protection from death ([1]; 10 mg/kg i.p. 10 minutes before 9/5 Gy total-body irradiation, p=0.0301): protected | protection from death ([1]; 10 mg/kg i.p. 10 minutes before 9.15 Gy total-body irradiation, p=0.010): protected | survival of mice ([1]; 10 mg/kg i.p. 24 hours before 9.75 Gy total body irradiation, vs irradiated control, P=0.0008): significant increase in survival | survival of mice ([1]; 10 mg/kg i.p. 24 hours prior to 9.5 Gy total body irradiation, P=0.0005): increases survival | n (shoulder) ([2]; 24 hours after irradiation, KM101 alone 1.1±0.1, p=0.0386): 2.2±0.2 | Do ([2]; before or after irradiation vs media alone): no significant change | n (shoulder) ([2]; for one hour before irradiation, KM101 alone 1.1±0.1, p=0.0309): 2.3±0.2 | protection of orthotopic 3LL cells from irradiation ([3]; 4 μg in 110 μl F15, 10 minutes before 0 or 15 Gy upper-body irradiation): did not protect 3LL cells from irradiation | survival of 3LL tumor-bearing mice compared to F15 alone ([3]; prior to 20 Gy thoracic irradiation, p=0.3693): did not survive significantly differently | number of GFP+ cells per 10^6 cells in the esophagus, median (inter-quartile range) ([4]; 29 Gy + JP4-039 (after irradiation), day 1): 0.5 (0-1.6) per 10^6 cells | number of GFP+ cells per 10^6 cells in the esophagus, median (inter-quartile range) ([4]; 29 Gy + JP4-039 (after irradiation), day 3): 1.5 (0.5-1.7) per 10^6 cells | number of GFP+ cells per 10^6 cells in the esophagus, median (inter-quartile range) ([4]; 29 Gy + JP4-039 (after irradiation), day 7): 0 (0-0.3) per 10^6 cells | number of GFP+ cells per 10^6 cells in the esophagus, median (inter-quartile range) ([4]; 29 Gy + JP4-039 (after irradiation), day 28): 0.85 (0-4.15) per 10^6 cells | number of GFP+ cells per 10^6 cells in the esophagus, median (inter-quartile range) ([4]; JP4-039 + 29 Gy (before irradiation), day 1): 0.9 (0.3-2.6) per 10^6 cells | number of GFP+ cells per 10^6 cells in the esophagus, median (inter-quartile range) ([4]; JP4-039 + 29 Gy (before irradiation), day 3): 0.3 (0-3.1) per 10^6 cells | number of GFP+ cells per 10^6 cells in the esophagus, median (inter-quartile range) ([4]; JP4-039 + 29 Gy (before irradiation), day 7): 0.28 (0.13-0.65) per 10^6 cells | number of GFP+ cells per 10^6 cells in the esophagus, median (inter-quartile range) ([4]; JP4-039 + 29 Gy (before irradiation), day 28): 0 (0-0) per 10^6 cells | number of GFP+ cells per 10^6 cells in the esophagus, median (inter-quartile range) ([4]; JP4-039 + 29 Gy (before irradiation), day 60): 0 (0-0) per 10^6 cells
